Legend:
Test in all cases: cells
MDA-MB-435 = details: Homo sapiens, MDA-MB-435, 48 h; for CC50: read-out: LC50
HL-60(TB) = details: Homo sapiens, HL-60, 48 h; for CC50: read-out: LC50
SF-295 = details: Homo sapiens, SF-295, 48 h; for CC50: read-out: LC50
NCI/ADR-RES = details: Homo sapiens, 48 h; for CC50: read-out: LC50
IGROV1 = details: Homo sapiens, IGROV-1, 48 h; for CC50: read-out: LC50
SN12C = details: Homo sapiens, 48 h; for CC50: read-out: LC50
SF-268 = details: Homo sapiens, SF-268, 48 h; for CC50: read-out: LC50
SK-MEL-2 = details: Homo sapiens, SK-MEL-2, 48 h; for CC50: read-out: LC50
A498 = details: Homo sapiens, A498, 48 h; for CC50: read-out: LC50
NCI-H226 = details: Homo sapiens, NCI-H226, 48 h; for CC50: read-out: LC50
NCI-H460 = details: Homo sapiens, NCI-H460, 48 h; for CC50: read-out: LC50
NCI-H23 = details: Homo sapiens, NCI-H23, 48 h; for CC50: read-out: LC50
UACC-257 = details: Homo sapiens, UACC-257, 48 h; for CC50: read-out: LC50
OVCAR-5 = details: Homo sapiens, OVCAR-5, 48 h; for CC50: read-out: LC50
LOX IMVI = details: Homo sapiens, 48 h; for CC50: read-out: LC50, LOX IMVI, 48 h
HOP-92 = details: Homo sapiens, HOP-92, 48 h; for CC50: read-out: LC50
MCF7 = details: Homo sapiens, MCF7, 48 h; for CC50: read-out: LC50
786-0 = details: Homo sapiens, 786-0, 48 h; for CC50: read-out: LC50
SR = details: Homo sapiens, 48 h; for CC50: read-out: LC50
K-562 = details: Homo sapiens, K562, 48 h; for GI50: K-562, 48 h; for CC50: read-out: LC50
CCRF-CEM = details: Homo sapiens, 48 h; for CC50: read-out: LC50
OVCAR-3 = details: Homo sapiens, OVCAR-3, 48 h; for CC50: read-out: LC50
TK-10 = details: Homo sapiens, TK-10, 48 h; for CC50: read-out: LC50
SK-MEL-5 = details: Homo sapiens, SK-MEL-5, 48 h; for CC50: read-out: LC50
OVCAR-4 = details: Homo sapiens, OVCAR-4, 48 h; for CC50: read-out: LC50

For `COc1cc(/C=C/C(=O)c2cc(OC)c(OC)c(OC)c2)ccc1Oc1nc(NCCO)nc(N2CCOCC2)n1` [20d], which GI50 (MDA-MB-435) is on record?
Its GI50 is 3.1 µM.

What about the CC50 (MDA-MB-435) of the same compound?
The CC50 was 35.1 µM.

What about the GI50 (HL-60(TB)) of the same compound?
The GI50 was 1.54 µM.

And the CC50 (HL-60(TB))?
The CC50 was > 100 µM.

And the GI50 (SF-295)?
Its GI50 is 2.9 µM.

What about the CC50 (SF-295) of the same compound?
The CC50 was 35.2 µM.

What about the GI50 (NCI/ADR-RES) of the same compound?
The GI50 was 4.72 µM.

And the CC50 (NCI/ADR-RES)?
Its CC50 is 95.9 µM.

And the GI50 (IGROV1)?
Its GI50 is 2.45 µM.

And the CC50 (IGROV1)?
The CC50 was 26.2 µM.

What about the GI50 (SN12C) of the same compound?
Its GI50 is 1.79 µM.

And the CC50 (SN12C)?
Its CC50 is 23.3 µM.

And the GI50 (SF-268)?
Its GI50 is 3.02 µM.

What about the CC50 (SF-268) of the same compound?
The CC50 was 71.8 µM.

What about the GI50 (SK-MEL-2) of the same compound?
The GI50 was 2.76 µM.

And the CC50 (SK-MEL-2)?
Its CC50 is 33.1 µM.

What about the GI50 (A498) of the same compound?
Its GI50 is 3.58 µM.

What about the CC50 (A498) of the same compound?
The CC50 was 37 µM.

And the GI50 (NCI-H226)?
The GI50 was 3.69 µM.

And the CC50 (NCI-H226)?
Its CC50 is > 100 µM.

What about the GI50 (NCI-H460) of the same compound?
The GI50 was 1.87 µM.

What about the CC50 (NCI-H460) of the same compound?
Its CC50 is 8.69 µM.

And the GI50 (NCI-H23)?
The GI50 was 1.99 µM.

And the CC50 (NCI-H23)?
Its CC50 is 17.5 µM.

And the GI50 (UACC-257)?
The GI50 was 2.83 µM.

What about the CC50 (UACC-257) of the same compound?
Its CC50 is 36.7 µM.

And the GI50 (OVCAR-5)?
The GI50 was 3.14 µM.

What about the CC50 (OVCAR-5) of the same compound?
The CC50 was 38.4 µM.

And the GI50 (LOX IMVI)?
Its GI50 is 0.642 µM.

What about the CC50 (LOX IMVI) of the same compound?
The CC50 was 4.99 µM.

And the GI50 (HOP-92)?
Its GI50 is 2.75 µM.

And the CC50 (HOP-92)?
The CC50 was 35.4 µM.

What about the GI50 (MCF7) of the same compound?
The GI50 was 1.72 µM.

What about the CC50 (MCF7) of the same compound?
Its CC50 is 61.5 µM.

What about the GI50 (786-0) of the same compound?
The GI50 was 3.46 µM.

And the CC50 (786-0)?
The CC50 was 43.6 µM.

And the GI50 (SR)?
The GI50 was 0.784 µM.

What about the CC50 (SR) of the same compound?
The CC50 was > 100 µM.

What about the GI50 (K-562) of the same compound?
Its GI50 is 1.91 µM.

And the CC50 (K-562)?
Its CC50 is > 100 µM.

And the GI50 (CCRF-CEM)?
The GI50 was 2.38 µM.

What about the CC50 (CCRF-CEM) of the same compound?
The CC50 was > 100 µM.

What about the GI50 (OVCAR-3) of the same compound?
Its GI50 is 3.2 µM.

What about the CC50 (OVCAR-3) of the same compound?
Its CC50 is 34.4 µM.

And the GI50 (TK-10)?
The GI50 was 3.12 µM.

What about the CC50 (TK-10) of the same compound?
Its CC50 is 30.6 µM.

And the GI50 (SK-MEL-5)?
Its GI50 is 1.77 µM.

What about the CC50 (SK-MEL-5) of the same compound?
The CC50 was 6.19 µM.

What about the GI50 (OVCAR-4) of the same compound?
The GI50 was 2.92 µM.

And the CC50 (OVCAR-4)?
Its CC50 is 33.4 µM.

`COc1cc(/C=C/C(=O)c2ccccc2)ccc1Oc1nc(Nc2ccc(F)cc2)nc(N(C)C)n1` [21a] was tested. Which GI50 (MDA-MB-435) did it give?
Its GI50 is 7.39 µM.

And the CC50 (MDA-MB-435)?
Its CC50 is 94.3 µM.

And the GI50 (HL-60(TB))?
Its GI50 is 8.37 µM.

And the CC50 (HL-60(TB))?
The CC50 was > 100 µM.

And the GI50 (SF-295)?
The GI50 was 6.89 µM.

And the CC50 (SF-295)?
Its CC50 is > 100 µM.

What about the GI50 (NCI/ADR-RES) of the same compound?
Its GI50 is 7.04 µM.

And the CC50 (NCI/ADR-RES)?
Its CC50 is 58.5 µM.

What about the GI50 (IGROV1) of the same compound?
The GI50 was 18.7 µM.

And the CC50 (IGROV1)?
Its CC50 is > 100 µM.

What about the GI50 (SN12C) of the same compound?
The GI50 was 7.32 µM.

What about the CC50 (SN12C) of the same compound?
The CC50 was 54.5 µM.

And the GI50 (SF-268)?
Its GI50 is 12.2 µM.

And the CC50 (SF-268)?
The CC50 was > 100 µM.

And the GI50 (SK-MEL-2)?
The GI50 was 4.68 µM.

What about the CC50 (SK-MEL-2) of the same compound?
The CC50 was 63.1 µM.

What about the GI50 (A498) of the same compound?
Its GI50 is 27 µM.

And the CC50 (A498)?
The CC50 was > 100 µM.

And the GI50 (NCI-H226)?
The GI50 was 4.94 µM.

And the CC50 (NCI-H226)?
The CC50 was 64.9 µM.

What about the GI50 (NCI-H460) of the same compound?
Its GI50 is 9.14 µM.

And the CC50 (NCI-H460)?
The CC50 was 93.2 µM.

What about the GI50 (NCI-H23) of the same compound?
Its GI50 is 12.6 µM.

What about the CC50 (NCI-H23) of the same compound?
The CC50 was > 100 µM.

What about the GI50 (UACC-257) of the same compound?
The GI50 was 6.44 µM.

What about the CC50 (UACC-257) of the same compound?
Its CC50 is > 100 µM.

What about the GI50 (OVCAR-5) of the same compound?
Its GI50 is 13.9 µM.

What about the CC50 (OVCAR-5) of the same compound?
The CC50 was > 100 µM.

And the GI50 (LOX IMVI)?
The GI50 was 1.6 µM.

What about the CC50 (LOX IMVI) of the same compound?
The CC50 was 6.23 µM.

And the GI50 (HOP-92)?
The GI50 was 2.08 µM.

And the CC50 (HOP-92)?
The CC50 was > 100 µM.

And the GI50 (MCF7)?
The GI50 was 3.08 µM.

And the CC50 (MCF7)?
The CC50 was 78.2 µM.

What about the GI50 (786-0) of the same compound?
The GI50 was 20.5 µM.

What about the CC50 (786-0) of the same compound?
Its CC50 is > 100 µM.

And the GI50 (SR)?
The GI50 was 2.9 µM.

What about the CC50 (SR) of the same compound?
Its CC50 is > 100 µM.

And the GI50 (K-562)?
The GI50 was 3.57 µM.

What about the CC50 (K-562) of the same compound?
Its CC50 is > 100 µM.

And the GI50 (CCRF-CEM)?
The GI50 was 3.38 µM.

What about the CC50 (CCRF-CEM) of the same compound?
The CC50 was > 100 µM.

And the GI50 (OVCAR-3)?
The GI50 was 11.8 µM.

What about the CC50 (OVCAR-3) of the same compound?
Its CC50 is > 100 µM.

What about the GI50 (TK-10) of the same compound?
Its GI50 is 18 µM.

What about the CC50 (TK-10) of the same compound?
Its CC50 is > 100 µM.

What about the GI50 (SK-MEL-5) of the same compound?
The GI50 was 6.21 µM.

And the CC50 (SK-MEL-5)?
The CC50 was > 100 µM.

What about the GI50 (OVCAR-4) of the same compound?
The GI50 was 5.85 µM.

What about the CC50 (OVCAR-4) of the same compound?
Its CC50 is > 100 µM.

Reference: article PMC11012124, “Synthesis of Novel Triazine-Based Chalcones and 8,9-dihydro-7H-pyrimido[4,5-b][1,4]diazepines as Potential Leads in the Search of Anticancer, Antibacterial and Antifungal Agents” (International Journal of Molecular Sciences, 2024)
